Test results as given in patent publication US11691976B2, “Coelenterazine analogues” (PROMEGA CORPORATION, priority 2018, dated 2023).

Target: NANOLUC® Luciferase (Oplophorus gracilirostris, UniProt Q9GV45, A31E/A60N/A81I/F95D/I117V/K70R/L54V/L99Q/M102K/N193R/P142E/Q151K/Q38R/Q45L/V71I/Y165I)
Test: Luminescence assay: substrate titration with purified NANOLUC Luciferase (RLU, signal half-life, Km)
Type: biochemical
Details: 100 μM substrate; initial light output three minutes after substrate addition; relative to furimazine set to 1.0
Procedure: Each compound to be screened was dissolved in DMSO (5 mM) and then further diluted to 100 μM in NANO-GEO® Luciferase Assay Buffer. A two-fold dilution series was prepared for each substrate by serially diluting 500 μl of the substrate solution with 500 μl of NANO-GLO® Luciferase Assay Buffer. Each diluted substrate titration was then combined in equal volumes with purified NANOLUC® Luciferase diluted into CO2 independent media+10% FBS. Initial light output for each substrate was measured in a GLOMAX®-Multi+ luminometer three minutes after substrate addition and then at five minute intervals as a means to determine signal half-life. Signal half-life was calculated using GraphPad Prism One Phase Decay regression and Km and Vmax were calculated using GraphPad Prism using Michaelis-Menten regression.
The synthesized coelenterazine analogues (compounds of formula (I) and (II)) were evaluated for their suitability as luciferase substrates. NANOLUC® luciferase was employed for the screening because it is a small (19 kDa), stable, and particularly bright enzyme. […] RLU, half-life, and Km values are for furimazine is set to 1.0. […]

Chain of NANOLUC® Luciferase (Q9GV45 28-196 with tags or gaps with the stated changes limits assumed): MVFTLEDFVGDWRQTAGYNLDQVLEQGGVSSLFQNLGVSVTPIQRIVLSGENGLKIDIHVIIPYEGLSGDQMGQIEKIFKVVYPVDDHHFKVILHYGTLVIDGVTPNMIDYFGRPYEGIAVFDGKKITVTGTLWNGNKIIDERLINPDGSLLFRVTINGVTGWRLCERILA

Compound | RLU (@100 μM)
Cc1ccc(Cc2nc3c(Cc4ccccc4)[nH]c(-c4cccc(O)c4)cn-3c2=O)o1 [JRW-1056, 8-benzyl-6-(3-hydroxyphenyl)-2-((5-methylfuran-2-yl)methyl)imidazo[1,2-a]pyrazin-3(7H)-one] | 1.1
Nc1cc(-c2cn3c(=O)c(Cc4ccco4)nc-3c(Cc3ccccc3)[nH]2)ccc1F [JRW-1536, 6-(3-amino-4-fluorophenyl)-8-benzyl-2-(furan-2-ylmethyl)imidazo[1,2-a]pyrazin-3(7H)-one] | 0.08
O=c1c(Cc2ccc(F)cc2)nc2c(Cc3ccccc3)[nH]c(-c3cccc(O)c3)cn1-2 [JRW-0786, 8-benzyl-2-(4-fluorobenzyl)-6-(3-hydroxyphenyl)imidazo[1,2-a]pyrazin-3(7H)-one] | 0.88
O=c1c(Cc2ccco2)nc2c(Cc3ccccc3)[nH]c(-c3ccc(Cl)c(O)c3)cn1-2 [JRW-1483, 8-benzyl-6-(4-chloro-3-hydroxyphenyl)-2-(furan-2-ylmethyl)imidazo[1,2-a]pyrazin-3(7H)-one] | 0.008
Nc1cccc(-c2cn3c(=O)c(Cc4ccco4)nc-3c(Cc3c(F)cccc3F)[nH]2)c1F [JRW-1747, 6-(3-amino-2-fluorophenyl)-8-(2,6-difluorobenzyl)-2-(furan-2-ylmethyl)imidazo[1,2-a]pyrazin-3(7H)-one] | 2.1
Nc1cc(F)cc(-c2cn3c(=O)c(Cc4ccco4)nc-3c(Cc3ccccc3)[nH]2)c1 [JRW-1535, 6-(3-amino-5-fluorophenyl)-8-benzyl-2-(furan-2-ylmethyl)imidazo[1,2-a]pyrazin-3(7H)-one] | 0.73
O=c1c(Cc2ccco2)nc2c(Cc3ccccc3)[nH]c(-c3cc(O)cc(F)c3)cn1-2 [JRW-1526, 8-benzyl-6-(3-fluoro-5-hydroxyphenyl)-2-(furan-2-ylmethyl)imidazo[1,2-a]pyrazin-3(7H)-one] | 1.0
O=c1c(Cc2ccccc2)nc2c(Cc3ccccc3)[nH]c(-c3cccc(O)c3)cn1-2 [JRW-1043, 2,8-dibenzyl-6-(3-hydroxyphenyl)imidazo[1,2-a]pyrazin-3(7H)-one] | 0.8
O=c1c(Cc2ccc(C(F)(F)F)o2)nc2c(Cc3ccccc3)[nH]c(-c3cccc(O)c3F)cn1-2 [JRW-1619, 8-benzyl-6-(2-fluoro-3-hydroxyphenyl)-2-((5-(trifluoromethyl)furan-2-yl)methyl)imidazo[1,2-a]pyrazin-3(7H)-one] | 0.85
COCc1cccc(Cc2nc3c(Cc4ccccc4)[nH]c(-c4cccc(O[Si](C)(C)C(C)(C)C)c4)cn-3c2=O)c1 [JRW-0372, 8-benzyl-6-(3-((tert-butyldimethylsilyl)oxy)phenyl)-2-(3-(methoxymethyl)benzyl)imidazo[1,2-a]pyrazin-3(7H)-one] | 0.00033
Cc1c(O)cccc1-c1cn2c(=O)c(Cc3ccco3)nc-2c(Cc2ccccc2)[nH]1 [JRW-1645, 8-benzyl-2-(furan-2-ylmethyl)-6-(3-hydroxy-2-methylphenyl)imidazo[1,2-a]pyrazin-3(7H)-one] | 0.07
COCc1cccc(Cc2nc3c(Cc4ccccc4)[nH]c(-c4cccc(O)c4)cn-3c2=O)c1 [JRW-0373, 8-benzyl-6-(3-hydroxyphenyl)-2-(3-(methoxymethyl)benzyl)imidazo[1,2-a]pyrazin-3(7H)-one] | 0.27
O=c1c(Cc2ccco2)nc2c(Cc3ccccc3)[nH]c(-c3cccc([N+](=O)[O-])c3)cn1-2 [JRW-1424, 8-benzyl-2-(furan-2-ylmethyl)-6-(3-nitrophenyl)imidazo[1,2-a]pyrazin-3(7H)-one] | 0.14
Nc1cccc(-c2cn3c(=O)c(Cc4ccc(F)cc4)nc-3c(Cc3ccccc3)[nH]2)c1F [JRW-1635, 6-(3-amino-2-fluorophenyl)-8-benzyl-2-(4-fluorobenzyl)imidazo[1,2-a]pyrazin-3(7H)-one] | 1.0
O=c1c(Cc2ccco2)nc2c(Cc3ccccc3)[nH]c(-c3cc(O)ccc3F)cn1-2 [JRW-1405, 8-benzyl-6-(2-fluoro-5-hydroxyphenyl)-2-(furan-2-ylmethyl)imidazo[1,2-a]pyrazin-3(7H)-one] | 1.0
O=c1c(Cc2ccco2)nc2c(Cc3ccccc3)[nH]c(-c3cccc(O)c3F)cn1-2 [JRW-1404, 8-benzyl-6-(2-fluoro-3-hydroxyphenyl)-2-(furan-2-ylmethyl)imidazo[1,2-a]pyrazin-3(7H)-one] | 1.2

Compound | RLU (@100 μM)
Cc1cccc(Cc2[nH]c(-c3cccc(O)c3)cn3c(=O)c(Cc4ccco4)nc2-3)c1 [JRW-1368, 2-(furan-2-ylmethyl)-6-(3-hydroxyphenyl)-8-(3-methylbenzyl)imidazo[1,2-a]pyrazin-3(7H)-one] | 0.032
O=c1c(Cc2cccs2)nc2c(Cc3ccccc3)[nH]c(-c3cccc(O)c3F)cn1-2 [JRW-1624, 8-benzyl-6-(2-fluoro-3-hydroxyphenyl)-2-(thiophen-2-ylmethyl)imidazo[1,2-a]pyrazin-3(7H)-one] | 0.84
Nc1cccc(-c2cn3c(=O)c(Cc4ccc(C(F)(F)F)o4)nc-3c(Cc3ccccc3)[nH]2)c1F [JRW-1610, 6-(3-amino-2-fluorophenyl)-8-benzyl-2-((5-(trifluoromethyl)furan-2-yl)methyl)imidazo[1,2-a]pyrazin-3(7H)-one] | 0.71
O=c1c(Cc2ccco2)nc2c(Cc3ccccc3F)[nH]c(-c3cccc(O)c3F)cn1-2 [JRW-1668, 6-(2-fluoro-3-hydroxyphenyl)-8-(2-fluorobenzyl)-2-(furan-2-ylmethyl)imidazo[1,2-a]pyrazin-3(7H)-one] | 1.5
COc1cccc(Cc2nc3c(Cc4ccccc4)[nH]c(-c4cccc(O)c4)cn-3c2=O)c1 [JRW-1047, 8-benzyl-6-(3-hydroxyphenyl)-2-(3-methoxybenzyl)imidazo[1,2-a]pyrazin-3(7H)-one] | 0.5
O=c1c(Cc2ccc3c(c2)OCO3)nc2c(Cc3ccccc3)[nH]c(-c3cccc(O)c3)cn1-2 [JRW-0777, 2-(benzo[d][1,3]dioxol-5-ylmethyl)-8-benzyl-6-(3-hydroxyphenyl)imidazo[1,2-a]pyrazin-3(7H)-one] | 0.45
O=c1c(Cc2ccco2)nc2c(Cc3ccccc3)[nH]c(-c3cc(O)cc(Cl)c3)cn1-2 [JRW-1479, 8-benzyl-6-(3-chloro-5-hydroxyphenyl)-2-(furan-2-ylmethyl)imidazo[1,2-a]pyrazin-3(7H)-one] | 0.43
Nc1cccc(-c2cn3c(=O)c(Cc4ccco4)nc-3c(Cc3ccccc3F)[nH]2)c1F [JRW-1667, 6-(3-amino-2-fluorophenyl)-8-(2-fluorobenzyl)-2-(furan-2-ylmethyl)imidazo[1,2-a]pyrazin-3(7H)-one] | 2.1
Cc1c(N)cccc1-c1cn2c(=O)c(Cc3ccco3)nc-2c(Cc2ccccc2)[nH]1 [JRW-1642, 6-(3-amino-2-methylphenyl)-8-benzyl-2-(furan-2-ylmethyl)imidazo[1,2-a]pyrazin-3(7H)-one] | 0.04
O=c1c(Cc2ccco2)nc2c(Cc3ccccc3)[nH]c(-c3cccc(O)c3Cl)cn1-2 [JRW-1488, 8-benzyl-6-(2-chloro-3-hydroxyphenyl)-2-(furan-2-ylmethyl)imidazo[1,2-a]pyrazin-3(7H)-one] | 0.31
O=c1c(Cc2ccco2)nc2c(Cc3ccc(F)cc3)[nH]c(-c3cccc(O)c3)cn1-2 [JRW-1498, 8-(4-fluorobenzyl)-2-(furan-2-ylmethyl)-6-(3-hydroxyphenyl)imidazo[1,2-a]pyrazin-3(7H)-one] | 0.049
COc1ccc(Cc2nc3c(Cc4ccccc4)[nH]c(-c4cccc(O)c4)cn-3c2=O)cc1 [JRW-1052, 8-benzyl-6-(3-hydroxyphenyl)-2-(4-methoxybenzyl)imidazo[1,2-a]pyrazin-3(7H)-one] | 0.4
Nc1cccc(-c2cn3c(=O)c(Cc4ccco4)nc-3c(Cc3ccccc3)[nH]2)c1F [JRW-1482, 6-(3-amino-2-fluorophenyl)-8-benzyl-2-(furan-2-ylmethyl)imidazo[1,2-a]pyrazin-3(7H)-one] | 1.7
Cc1cccc(Cc2[nH]c(-c3cccc(O)c3F)cn3c(=O)c(Cc4ccco4)nc2-3)c1 [JRW-1370, 6-(2-fluoro-3-hydroxyphenyl)-2-(furan-2-ylmethyl)-8-(3-methylbenzyl)imidazo[1,2-a]pyrazin-3(7H)-one] | 0.036
Nc1ccc(F)c(-c2cn3c(=O)c(Cc4ccco4)nc-3c(Cc3ccccc3)[nH]2)c1 [JRW-1411, 6-(5-amino-2-fluorophenyl)-8-benzyl-2-(furan-2-ylmethyl)imidazo[1,2-a]pyrazin-3(7H)-one] | 0.001
O=c1c(Cc2ccco2)nc2c(Cc3ccccc3)[nH]c(-c3cc(O)ccc3Cl)cn1-2 [JRW-1525, 8-benzyl-6-(2-chloro-5-hydroxyphenyl)-2-(furan-2-ylmethyl)imidazo[1,2-a]pyrazin-3(7H)-one] | 0.4
